Eleven compounds from PubChem BioAssay (NCI) can be followed below.

Common to all, as to assay: NCI-60 cell line screen, 48 h
In test [1] the test system is U251 CNS.
The subject of test [2] is K-562 leukemia.
The subject of test [3] is OVCAR-4 ovarian.
Test [4] relates to A549 NSCLC.
The test system of test [5] is SK-OV-3 ovarian.
The subject of test [6] is CAKI-1 renal.
Test [7] deals with TK-10 renal.
Test [8] deals with NCI-H460 lung.
The subject of test [9] is HOP-62 NSCLC.
The subject of test [10] is HT29 colon.
The subject of test [11] is OVCAR-3 ovarian.
Test [12] relates to UACC-62 melanoma.
Test [13] deals with A498 renal.
In test [14] the test system is SK-MEL-2 melanoma.

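96-well plates; 48 h exposure; 5 concentrations. Endpoints by linear interpolation between flanking doses. Not reached: highest tested concentration assigned. TGI: concentration producing complete growth inhibition.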

For `CCN(CC)Cc1cc(Nc2ccnc3ccc4nn(C)nc4c23)ccc1O`, the TGI in test [1] is 45.5 µM; in test [2], above 100 µM; in [3], 37 µM; in [4], 80 µM; in [5], 57.7 µM; in [6], above 100 µM. Further, the TGI in [7] is 75.6 µM; in test [8] it was 22.5 µM; in test [9], 36.8 µM; in [10], 20.9 µM; in [11], 68 µM; in test [12], 27.4 µM.
With `CN(C)C(=NC#N)N(Cc1ccccc1)Cc1ccccc1`, the TGI is above 100 µM in test [1]; 50.9 µM in test [2]; above 100 µM in test [3]; above 100 µM in test [13]; above 100 µM in test [4]; above 100 µM in test [5]. The TGI in test [6] was above 100 µM; in [7] it was above 100 µM; in test [8], 34 µM; in test [9], above 100 µM; in test [10], above 100 µM; in [11] it was above 100 µM. Besides, the TGI in [14] and in test [12] was above 100 µM throughout.
`CC(C)OP(=O)(OC(C)C)C(=NCCN=C(NNc1ccccc1[N+](=O)[O-])P(=O)(OC(C)C)OC(C)C)NNc1ccccc1[N+](=O)[O-]`: the TGI is 83.4 µM in [1]; above 100 µM in test [2]; above 100 µM in test [3]; above 100 µM in test [13]; above 100 µM in [4]; above 100 µM in test [6]. The TGI in test [7] is above 100 µM; in [9], above 100 µM; in [11], above 100 µM; in test [14] it was 40 µM; in test [12], 40.6 µM.
For `CCOC(=O)C(NC(=O)CC)(Nc1ccc(F)cc1F)C(F)(F)F` (configuration not stated), the TGI in test [1], in [2], in test [13], in [4], in test [5] and in test [7] was above 100 µM throughout. Also, the TGI in [10] and in test [14] was above 100 µM each time.
`O=C(Cc1nc2ccc([N+](=O)[O-])cc2[nH]c1=O)C(=O)Nc1ccccc1[N+](=O)[O-]`: the TGI in [2], in test [3], in test [13], in test [4], in test [5] and in test [6] was above 100 µM throughout. In addition, the TGI in test [7], in [8], in test [10], in test [11], in test [14] and in test [12] was above 100 µM throughout.
As for `CC(C)C(Sc1nc(-c2ccccc2)c(-c2ccccc2)[nH]1)c1n[nH]c(=S)n1-c1ccccc1` (configuration not stated), the TGI is 61.3 µM in [1]; above 100 µM in test [3]; above 100 µM in test [13]; above 100 µM in [4]; above 100 µM in [5]; above 100 µM in test [7]. The TGI in test [8] was above 100 µM; in test [9], above 100 µM; in test [10], 70.3 µM; in test [11], 45.9 µM; in test [14], 43 µM; in test [12], 25.3 µM.
Turning to `CCOc1cccc(-c2cc(=O)c3cc4c(cc3[nH]2)OCO4)c1`, the TGI in [1] was 3.44 µM; in test [3], above 100 µM; in test [13], above 100 µM; in test [4], 28.9 µM; in test [6] it was 9.67 µM; in test [7] it was 8.45 µM. Moreover, the TGI in test [8] is above 61.8 µM; in test [9], above 100 µM; in [10], 0.593 µM; in [11] it was 3.88 µM; in test [14] it was 24.9 µM; in test [12], 21.1 µM.
Turning to `NC(CCCCNCc1ccccc1)C(=O)O` (configuration not stated), the TGI in test [1], in test [2], in [3], in test [13], in test [4] and in [5] was above 100 µM each time. Further, the TGI in test [6], in [7], in test [8], in test [9], in [10] and in test [11] was above 100 µM in each case. In addition, the TGI in test [14] and in test [12] was above 100 µM throughout.
As to `COc1ccccc1NC(=O)CC(=O)N1N=C(c2ccccc2)C(N=Nc2ccc(Cl)cc2)C1=O` (configuration not stated), the TGI in [1] is above 100 µM; in [2], above 100 µM; in test [3], 56.6 µM; in [13], 35.2 µM; in [4], above 100 µM; in test [5] it was 51.8 µM. The TGI in test [6] is above 100 µM; in [7], 52.3 µM; in test [8], above 100 µM; in test [9] it was 48.6 µM; in [10] it was above 100 µM; in [11], 74.3 µM. Further, the values for the TGI in [14] and in [12] were above 100 µM and 89.7 µM, respectively.
`COc1cc(CNc2cnc3ccc(N)cc3n2)cc(OC)c1OC`: the TGI in [1], in [2], in test [3], in test [13], in [4] and in test [5] was above 100 µM in each case. The TGI in test [6], in [7], in test [8], in test [9], in [10] and in [11] was above 100 µM each time. In addition, the TGI in test [14] and in [12] was above 100 µM in each case.
In the case of `Cc1cc(C)nc(NS(=O)(=O)c2ccc(NC(=O)NC(F)(F)F)cc2)n1`, the TGI in test [1] is above 100 µM; in test [2] it was above 100 µM; in test [13] it was above 100 µM; in test [4], above 100 µM; in test [5], above 100 µM; in test [6], 72.8 µM. Besides, the TGI in test [7], in test [10] and in test [14] was above 100 µM in each case.
